According to patent US20230293406A1, “Compositions Comprising (Bio)-Alkanediols and Cooling Agents” (Symrise AG, priority 2020, published 2023):
Values after ≈ are worked out from the molar mass of the structure shown. Read-outs that look alike come from different tables or passages of the source.

Assays:
Corynebacterium xerosis = assay: Minimum Inhibitory Concentration (MIC) growth inhibition test and Kull Synergy Index; type: cell-based; settings: for MIC: Corynebacterium xerosis, read-out: MIC (ppm) Corynebacterium xerosis (converted)
Procedure: (§1) The MIC test is a test on growth inhibition. Estimation of the Minimum Inhibitory Concentration (MIC) is executed in 96 well plates. Through the comparison of bacterial growth with positive and negative controls via optical density (OD), different concentrations of given test substances are evaluated. Bacteria are cultivated under adjusted conditions based on information of the German Collection of Microorganisms and Cell Cultures (DSMZ) and stored in 50% Glycerol prior to use. Afterwards, the following method was applied:
(§2) Adding growth medium (according to microorganism) to each well of the microplate. Adding the test-substances in different concentrations, positive controls (water controls only with medium) and negative controls (benchmarks according to organism). Adding the microorganism in a concentration of 10^6 CFU/ml (CFU=colony forming units). Incubation of the microplates at appropriate conditions.
(§3) According to resulting growth, substance concentrations are labelled either as inhibiting or not and the corresponding MIC is defined as the lowest concentration where a complete growth inhibition is visible. Experiments at concentration limits (highest concentration labelled as growth and lowest concentration labelled as inhibiting) are performed at least twice.
(§4) The synergistic activity of 1,2-alkanediols with cooling compounds was determined by measuring the corresponding minimum inhibitory concentrations (MIC values) according to the method described above for antimicrobial activity: Minimum Inhibitory Concentration (MIC)
(§5) In order to calculate the synergy index with MIC values, the Kull equation (I) was used as follows:
(§6) SI=(MICmix×PA)/MICA+(MICmix×PB)/MICB (I)
(§7) wherein • SI is the Synergy Index according to Kull • MICA is the MIC value for Substance A • MICB is the MIC value for Substance B • MICmix is the MIC value for the mixture of substances A and B • PA is the proportion of the substance A in the mixture • PB is the proportion of the substance B in the mixture
(§8) To verify that the tested combinations act synergistically against microorganisms of the natural microbiota of mammalian skin, a corresponding experiment was conducted with representative microbial species. The synergistic activities of mixtures of 1,2-heptanediol and Menthyl lactate as well as for 1,2-nonanediol and Menthyl lactate were determined by measuring the corresponding minimum inhibitory concentrations (MIC values) as indicated in the methods section.

[1] = Malodour coverage sensory test, trained panel, filter paper with sweat malodour; settings: for malodour coverage ranking 6 h: after 6 h; for malodour coverage ranking 24 h: after 24 h; for malodour coverage ranking 48 h: after 48 h
Procedure: Malodour coverage was tested in an established setup with a trained panel (n=5-9). For this sensory test, a defined amount of the material was applied on a filter paper together with a defined amount of sweat malodour. For evaluation, the panelists were asked to rate the individual samples on a scale from 0 to 10 (0: odourless; 10: strongest imaginable). The results of the malodour rating for all materials were ranked and the position of the individual materials compared over time. A synergistic effect regarding reduction of malodour was found for all mixtures of Frescolat ML and 1,2-heptanediol after 24 h and 48 h, respectively.

Staphylococcus hominis = assay: Minimum Inhibitory Concentration (MIC) growth inhibition test and Kull Synergy Index; type: cell-based
Procedure: as §1, §2, §3, §4, §5, §6, §7, §8

Corynebacterium jeikeium = assay: Minimum Inhibitory Concentration (MIC) growth inhibition test; type: cell-based; settings: Table 1
Procedure: (§9) The MIC test is a test on growth inhibition. Estimation of the Minimum Inhibitory Concentration (MIC) is executed in 96 well plates. Through the comparison of bacterial growth with positive and negative controls via optical density (OD), different concentrations of given test substances are evaluated. Bacteria are cultivated under adjusted conditions based on information of the German Collection of Microorganisms and Cell Cultures (DSMZ) and stored in 50% Glycerol prior to use. Afterwards, the following method was applied: Adding growth medium (according to microorganism) to each well of the microplate. Adding the test-substances in different concentrations, positive controls (water controls only with medium) and negative controls (benchmarks according to organism). Adding the microorganism in a concentration of 10^6 CFU/ml (CFU=colony forming units). Incubation of the microplates at appropriate conditions. According to resulting growth, substance concentrations are labelled either as inhibiting or not and the corresponding MIC is defined as the lowest concentration where a complete growth inhibition is visible. Experiments at concentration limits (highest concentration labelled as growth and lowest concentration labelled as inhibiting) are performed at least twice.

Escherichia coli = assay: as above; type: cell-based; settings: Table 1
Procedure: as §9

Propionibacterium acnes = assay: as above; type: cell-based; settings: Cutibacterium acnes; Table 1; >5000: 5000 ppm tested, no growth inhibition
Procedure: as §9

Candida albicans = assay: as above; type: cell-based; settings: Table 1
Procedure: as §9

Staphylococcus aureus = assay: Minimum Inhibitory Concentration (MIC) growth inhibition test, 96 well plates, OD; type: cell-based; settings: Table 1
Procedure: as §9

[2] = Table 4, single substances and mixtures with further cooling agents
[3] = Ranking: 1 = highest malodour to 6 = lowest malodour, single diols at 0.5%, Table 7
[4] = Ranking: 1 = highest malodour to 6 = lowest malodour, single diols at 0.5%, Table 9
[5] = Ranking: 1 = lowest malodour to 6 = strongest malodour, Table 5
[6] = Table 3, single substances and mixtures with menthyl lactate
[7] = Table 3, single substances and mixtures with menthyl lactate, read-out: MIC (ppm) Staphylococcus hominis
[8] = Ranking: 1 = lowest malodour to 6 = strongest malodour, Table 6
[9] = Ranking: 1 = highest malodour to 6 = lowest malodour, single diols at 0.5%, Table 8

CCCCCCC(O)C(C)O (stereo not drawn) [2,3-C9, 2,3-nonanediol]
MIC (Corynebacterium xerosis; [2]): 2500 µg/mL

CCCCC(O)C(C)O (stereo not drawn) [2,3-C7, 2,3-Heptanediol]
malodour coverage ranking 6 h [1, 3]: 3.2
malodour coverage ranking 24 h [1, 3]: 3.5
MIC (Corynebacterium xerosis; [2]): 12500 µg/mL

CCCCCC(O)CO (stereo not drawn) [1,2-C7, 1,2-heptanediol]
malodour coverage ranking 6 h [1, 3]: 2.3
malodour coverage ranking 6 h [1, 4]: 3.5
malodour coverage ranking 24 h [1, 3]: 3.4
malodour coverage ranking 24 h [1, 4]: 3.1
malodour coverage ranking 24 h [1, 5]: 3.3
malodour coverage ranking 48 h [1, 5]: 3.3
MIC (Corynebacterium xerosis; [6]): 5000 µg/mL
MIC (ppm) Corynebacterium xerosis (Corynebacterium xerosis; [2]): 5 000 ppm
MIC (Staphylococcus hominis; [7]): 10000 µg/mL

CC1CCC(C(C)C)C(OC(=O)C(C)O)C1 (single isomer, unassigned; (-)) [Menthyl lactate, (−)-Menthyl lactate]
malodour coverage ranking 6 h [1, 8]: 3.6
malodour coverage ranking 24 h [1, 5]: 3.6
malodour coverage ranking 24 h [1, 8]: 3.9
malodour coverage ranking 48 h [1, 5]: 3.1
MIC (Corynebacterium xerosis; [6]): 250 µg/mL
MIC (Staphylococcus hominis; [7]): 250 µg/mL

CCCCCCCC(O)CO (stereo not drawn) [1,2-C9, 1,2-nonanediol]
malodour coverage ranking 6 h [1, 8]: 4.2
malodour coverage ranking 24 h [1, 8]: 3.9
MIC (ppm) Corynebacterium xerosis (Corynebacterium xerosis; [6]): 2 500 ppm
MIC (ppm) Corynebacterium xerosis (Corynebacterium xerosis; [2]): 2 500 ppm
MIC (Staphylococcus hominis; [7]): 1000 µg/mL

CC1CCC(C(C)C)C(OCC(O)CO)C1 (stereo not drawn) [3-((−)-Menthoxy)propane-1,2-diol]
MIC (Corynebacterium xerosis; [2]): 500 µg/mL

CCCCCC(O)C(C)O (stereo not drawn) [2,3-C8, 2,3-Octanediol]
malodour coverage ranking 6 h [1, 4]: 2.3
malodour coverage ranking 24 h [1, 9]: 3.2
malodour coverage ranking 24 h [1, 4]: 3.4

CC1CCC(C(C)C)C(O)C1 (stereo not drawn) [Menthol]
MIC (Corynebacterium xerosis; [2]): 1000 µg/mL

CCCCCCC(O)CO (stereo not drawn) [1,2-C8, 1,2-Octanediol]
malodour coverage ranking 24 h [1, 9]: 2.8

CCCCCCCCCC(O)CO (stereo not drawn) [1,2-C11, 1,2-undecandiol]
MIC (Corynebacterium jeikeium): 250 µg/mL (≈ 1330 µM)
MIC (Escherichia coli): 250 µg/mL (≈ 1330 µM)
MIC (Propionibacterium acnes): 250 µg/mL (≈ 1330 µM)
MIC (Candida albicans): 64 µg/mL (≈ 340 µM)
MIC (Staphylococcus hominis; Table 1, read-out: Minimum Inhibitory Concentration (MIC) Staphylococcus hominis): 125 µg/mL
MIC (Staphylococcus aureus): 125 µg/mL (≈ 664 µM)
